This passage reports potato dihydroorotase activity results from patent publication US7727753B2, “Plant dihydroorotase” (BASF Aktiengesellschaft, priority 1999, dated 2010).

In the test the test system is potato dihydroorotase. In words: Measurement of the dihydroorotase activity (dihydroorotate-dehydrogenase-coupled photometric assay at 340 nm, or colorimetric assay). It counts as biochemical, Solanum tuberosum. The following applies: activity measured in the assay systems described; recombinant enzyme expressed in E. coli. The source says:
The enzymatic detection developed to date for measuring the dihydroorotase activity by the method of Mazus and Buchowicz, (Acta Biochimica Polonica (1968), 15(4), 317-325) is based on detecting the orotate formed at 280 nm in a dihydroorotate-dehydrogenase-coupled reaction mixture. Prerequisite for doing so is a high activity of the auxiliary enzyme, viz. dihydroorotate dehydrogenase. […] In order to be able to carry out a mass screening, the specific dihydroorotate dehydrogenase activity must be at least ten times higher than is the case in the commercial preparation. […] The enzyme activity was determined in a photometric assay by measurement in a photometer (Uvikon 933, Kontron) at 340 nm. […] In each case […] of the resulting enzyme fraction was made up with buffer to […] and measured against a reference cell containing […] reaction buffer and 100 ml of a protein homogenate of untransformed E. coli culture. […] Identical quantities of total protein were employed for measuring the untransformed or transformed E. coli extracts. […] Alternatively, the dihydroorotase may also be measured in a less sensitive colorimetric assay by the method of Prescott and Jones (Anal. Biochem. (1969) 32, 408-419) without being coupled to dihydroorotate dehydrogenase. […]

Structures are written as SMILES.

For the molecule `O=C1NC(C(=O)O)=CC(C(=O)O)N1` (centres unmarked) [2-oxo-1,2,3,6-tetrahydropyrimidine-4,6-dicarboxylate], the potato dihydroorotase activity result is reported as “can be reduced”.
`O=C1NC(=S)C[C@@H](C(=O)O)N1` [6-L-thiodihydroorotate]: the potato dihydroorotase activity result is “can be reduced”.
